Data as given in patent US9586999B2, “Methods and compositions related to improving properties of pharmacological agents targeting nervous system” (University of Utah Research Foundation, priority 2006, dated 2017).
Several values for one entry are separate records, joined by “and”; a condition that tells them apart may be missing. Equal values may be shown once. Entries after “also recorded” stand apart in the source; their conditions may differ. Read-outs that look alike come from different tables or passages of the source. Square brackets hold non-standard residues; d marks the D form. Ends that are not written are not given here. Ahx = NCCCCCC(=O)O

Key:
6 Hz limbic seizures = experiment: 6 Hz limbic (psychomotor) seizure test; format: in vivo, mouse; conditions: for ED50: Mus musculus, ip; for ED50 / ED50 in the 6 Hz limbic seizure model (in Table 14 in parentheses): i.p.; for effect against 6 Hz (22 mA) limbic seizures: administered into the ventricular space, CF-1 mice; for ED50 in the 6 Hz limbic seizure model (in Table 14 in parentheses): SAR analogs; for % Protection at 1, 2 and 4 hours afforded by a dose of 4 mg/kg, i.p. (result in words): all time points; for % Protection at 30 min (4 mg/kg, i.p.): octreotide and DSIP analogs
From the text: Mice not displaying limbic seizures were considered protected.
As mentioned above, the 6 Hz seizure becomes more resistant to block by antiepileptic drugs as the current is increased from 22 mA to 44 mA.

[1] = tested on: formalin-induced paw licking; experiment: Mouse formalin test of inflammatory pain; format: in vivo; conditions: for phase II response at the active dose: mouse formalin assay; for Active at: mouse formalin assay of inflammatory pain; for potency in mouse formalin assay: in vivo
Protocol: An injection of 0.5% formalin is made into the planter region of a mouse right hind paw. This elicits a distinct biphasic behavioral profile characterized by the mouse licking the affected paw. Immediately following the injection the mouse licks the paw for about 10 minutes. This is phase 1 (acute) and is followed by a brief latent period where there is little behavioral activity. A more prolonged period of about 20 to 30 minutes of paw licking ensues which constitutes phase 2 (inflammatory).
Prior to the administration of the active peptide, drug or vehicle each mouse undergoes a 15-minute conditioning period in one of several 6″ tall plexiglass observation tubes (4″ diameter) that are placed in front of a mirror. […] One hour after treatment, formalin was injected sub-dermally (20 μl; 27 gauge needle) into the plantar surface of the right hind foot. The bevel of the needle is placed facing down toward the skin surface. Following the injection of the formalin each animal is observed for first 2 minutes of each 5 minute epoch for a total of 45 minutes. The cumulative length of licking for each 2 minute time period was measured. An animal receiving the requisite volume of vehicle was alternated with each mouse given GAL-BBB2, Gal 1-16, or gabapentin. Animals were euthanized following the conclusion of the experiment.
Area under the curve (AUC) determination was made using the GraphPad Prism Version 3.03. Total AUC is calculated for both the test and control groups for both the acute and inflammatory phases. The AUC for individual animals for each phase is also calculated and converted to percentage of total AUC of control. The average percentages and SEM for both the drug treated and control were calculated and tested for significant difference.

sound-induced seizures = experiment: Frings audiogenic seizure-susceptible mouse model of reflex epilepsy; format: in vivo
From the text: (§1) The ability of individual modified peptides to prevent seizures induced by sound in the AGS-susceptible Frings mouse model can be assessed at the time of peak effect (White et al., 1992). For this test, individual mice are placed into a plexiglass cylinder (diameter, 15 cm; height, 18 cm) fitted with an audio transducer (Model AS-ZC; FET Research and Development, Salt Lake City, Utah), and exposed to a sound stimulus of 110 decibels (11 KHz) delivered for 20 seconds. Sound-induced seizures are characterized by wild running followed by loss of righting reflex with forelimb and hindlimb tonic extension. Mice not displaying hindlimb tonic extension are considered protected.
The two modified galanin analogs (GAL-BBB1 and GAL-BBB2) were administered i.p. to a group of Frings audiogenic seizure susceptible mice in a dose of 4 mg/kg. At various times after administration (i.e., 15, 30, 60, 120, and 240 min) each mouse was placed into a cylindrical test chamber fitted with an audio transducer and challenged with a high-intensity sound stimulus (110 dB, 11 KHz for 20 sec). Animals not displaying tonic hind-limb extension were considered protected. […] In a subsequent study, anticonvulsant efficacy was quantitated at the time to peak effect (i.e., 1 h) in a dose-response study.
as §1, with “analogs” for “peptides”
At various times after administration (i.e., 15, 30, 60, 120, and 240 min) each mouse was placed into a cylindrical test chamber fitted with an audio transducer and challenged with a high-intensity sound stimulus (110 dB, 11 KHz for 20 sec).

[2] = stimulus intensity 22 mA, read-out: 22 mA (ED50, 6 Hz model)
[3] = stimulus intensity 32 mA, read-out: 32 mA (ED50, 6 Hz model)
[4] = stimulus intensity 44 mA, read-out: 44 mA (ED50, 6 Hz model)

CCC1(C)CC(=O)NC1=O (centres unmarked) [Ethosuximide, reference compound]
ED50 (6 Hz limbic seizures; [2]): 86.9 mg/kg
ED50 (6 Hz limbic seizures; [3]): 167 mg/kg
ED50 (6 Hz limbic seizures; [4]): 600 mg/kg

Nc1nnc(-c2cccc(Cl)c2Cl)c(N)n1 [Lamotrigine, reference compound]
ED50 (6 Hz limbic seizures; [2]): 4.4 mg/kg
ED50 (6 Hz limbic seizures; [3]): > 60 mg/kg
ED50 (6 Hz limbic seizures; [4]): > 60 mg/kg

O=C1NC(=O)C(c2ccccc2)(c2ccccc2)N1 [Phenytoin, reference compound]
ED50 (6 Hz limbic seizures; [2]): 9.4 mg/kg
ED50 (6 Hz limbic seizures; [3]): > 60 mg/kg
ED50 (6 Hz limbic seizures; [4]): > 60 mg/kg

CCCC(CCC)C(=O)O [Valproic acid, reference compound]
ED50 (6 Hz limbic seizures; [2]): 41.5 mg/kg
ED50 (6 Hz limbic seizures; [4]): 310 mg/kg

C[C@H](N)C(=O)NCC(=O)N[C@H]1CSSC[C@@H](C(=O)O)NC(=O)[C@H](CO)NC(=O)[C@H]([C@@H](C)O)NC(=O)[C@H](Cc2ccccc2)NC(=O)[C@H]([C@@H](C)O)NC(=O)[C@H](CCCCN)NC(=O)[C@H](Cc2c[nH]c3ccccc23)NC(=O)[C@H](Cc2ccccc2)NC(=O)[C@H](Cc2ccccc2)NC(=O)[C@H](CC(N)=O)NC(=O)[C@H](CCCCN)NC1=O [somatostatin, reference compound]
effect against 6 Hz (22 mA) limbic seizures (6 Hz limbic seizures): effective

(Sar)WTLNSAGY(Ahx)KK(Lys-P)K [NAX 306-4]
activity in the second response phase of the inflammatory pain assay ([1]; 2.95 mg/kg): very active
phase II response at the active dose [1]: (“flat phase II”)
Active at [1]: 2.9 mg/kg
potency in mouse formalin assay [1]: potent
% Protection at 2 hours afforded by a dose of 4 mg/kg, i.p. (6 Hz limbic seizures; 4 mg/kg i.p., 4 mg/kg): 0% and 0%, 0%
% Protection at 4 hours afforded by a dose of 4 mg/kg, i.p. (6 Hz limbic seizures; 4 mg/kg i.p., 4 mg/kg): 0% and 0%, 0%
ED50 in the 6 Hz limbic seizure model (in Table 14 in parentheses) (6 Hz limbic seizures): (2.95 mg/kg)

(Sar)WTLNSAGYKK(Lys-P)K [NAX 306-3]
phase II response at the active dose [1]: (“flat phase II”)
Active at [1]: 2.7 mg/kg
potency in mouse formalin assay [1]: potent
% Protection at 2 hours afforded by a dose of 4 mg/kg, i.p. (6 Hz limbic seizures; 4 mg/kg i.p.): 25%
% Protection at 4 hours afforded by a dose of 4 mg/kg, i.p. (6 Hz limbic seizures; 4 mg/kg i.p.): 0%
ED50 in the 6 Hz limbic seizure model (in Table 14 in parentheses) (6 Hz limbic seizures): (2.7 mg/kg)

(Sar)WTLNSAGYLLGPDKDK(Lys-P)DK [NAX 1205-2]
% Protection at 2 hours afforded by a dose of 4 mg/kg, i.p. (6 Hz limbic seizures; 4 mg/kg i.p.): 50%
% Protection at 4 hours afforded by a dose of 4 mg/kg, i.p. (6 Hz limbic seizures; 4 mg/kg i.p.): 75%
ED50 in the 6 Hz limbic seizure model (in Table 14 in parentheses) (6 Hz limbic seizures): (1.2 mg/kg)

(Sar)WTLNSAGYLLGPHA(Lys-P) [NAX 306-5]
% Protection at 1, 2 and 4 hours afforded by a dose of 4 mg/kg, i.p. (result in words) (6 Hz limbic seizures; 4 mg/kg i.p.): Not active

(Sar)WTLNSAGYLLGPRR(Lys-P)R [NAX 1205-3]
% Protection at 2 hours afforded by a dose of 4 mg/kg, i.p. (6 Hz limbic seizures; 4 mg/kg i.p.): 75%
% Protection at 4 hours afforded by a dose of 4 mg/kg, i.p. (6 Hz limbic seizures; 4 mg/kg i.p.): 0%

(Sar)WTLNSAGYLLKK(Lys-P)K [NAX 1205-5]
% Protection at 2 hours afforded by a dose of 4 mg/kg, i.p. (6 Hz limbic seizures; 4 mg/kg i.p.): 25%
% Protection at 4 hours afforded by a dose of 4 mg/kg, i.p. (6 Hz limbic seizures; 4 mg/kg i.p.): 0%

DPhe-Cys-Phe-DTrp-Lys-Thr-Cys-Thr-NH2 [SEQ ID NO: 148, reference compound]
% Protection at 30 min (4 mg/kg, i.p.) (6 Hz limbic seizures; 4 mg/kg i.p.): 50%

GWTLNSAGYLLGPHAV [Gal(1-16), reference compound]
anticonvulsant activity of native fragment (sound-induced seizures; 20 mg/kg i.p.): inactive; also recorded: but not the native GAL(1-16) fragment (20 mg/kg) was effective
activity of native fragment in formalin test ([1]; 20 mg/kg i.p.): inactive
% Protection at 1, 2 and 4 hours afforded by a dose of 4 mg/kg, i.p. (result in words) (6 Hz limbic seizures; 4 mg/kg i.p.): Not active
ED50 following i.c.v. administration (6 Hz limbic seizures; intracerebroventricular, 6 Hz (32 mA)): 1.7 nmol

Lys-Lys-Lys(palm)-Lys-Ahx-DPhe-Cys-Phe-DTrp-Lys-Thr-Cys-Thr-NH2 [SEQ ID NO: 149]
% Protection at 30 min (4 mg/kg, i.p.) (6 Hz limbic seizures; 4 mg/kg i.p.): 100%

Sar-Trp-Thr-Leu-Asn-Ser-Ala-Gly-Tyr-Leu-Leu-Gly-Pro-His-(Lys-palm)-Tle-NH2 [GAL-BBB1]
anticonvulsant activity (protection from tonic hind-limb extension) (sound-induced seizures; 4 mg/kg i.p., 15-240 min, also higher dose of 12 mg/kg): not active at any time point tested

WAGGDFSGE [DSIP, reference compound]
% Protection at 30 min (4 mg/kg, i.p.) (6 Hz limbic seizures; 4 mg/kg i.p.): 0%
effect against 6 Hz (22 mA) limbic seizures (6 Hz limbic seizures): effective

[Ahx]GGWAGGDFSGE [SEQ ID NO: 142]
% Protection at 30 min (4 mg/kg, i.p.) (6 Hz limbic seizures; 4 mg/kg i.p.): 50%
% Protection after 2 hours (6 Hz limbic seizures; 2 hours, 4 mg/kg i.p.): NO: 142) (100% after 2 hours)
